Assay results from patent publication US7470719B2, “Metastable benzoxepne derivatives which can be used in the treatment of dyslipidaemia a therosclerosis and diabetes, pharmaceutical compositions comprising them and processes for the preparation thereof” (Merck Patent GmbH, priority 2002, dated 2008).
Several values for one entry are separate records, joined by “and”; a condition that tells them apart may be missing. Equal entries are not always repeated.

Tests used:
Type in all cases: physicochemical
[1] = Apparent density of the crystalline forms; settings: for Apparent density: powder of the crystalline form, paired with the specific surface area of the same line
Text: (§1) The dissolution kinetics promote the xenobiotic bioavailability of this type of active principle. It is also known that the dissolution kinetics are accelerated by increasing the specific surface area. […] Table I below gives the respective values of the apparent density and the specific surface area (BET surface area) for the various crystalline forms.

[2] = Specific surface area (BET) of the crystalline forms; settings: powder of the crystalline form; paired with the apparent density of the same line
Text: as §1

[3] = Comparative grinding studies (jet micronisation): specific surface area (BET) of batches; settings: for BET: after grinding, feed pressure, grinding pressure and feed flow differ per batch (batches 1-11, see line of table)
Method: In addition, comparative grinding studies, in particular by jet micronisation, were performed so as to obtain powders of the stable and metastable forms having the same specific surface area.
Table II below presents a comparison of the specific surface areas of different batches of the compound of the formula I in which n represents 1 and R in position 7 represents methoxy, obtained by carrying out different grinding conditions.

Apparent density [1] | Specific surface area or BET [2] | Apparent density of metastable form compared with thermodynamically stable form ([1]; for the same specific surface area value) | BET ([3]; feed 2.0 bar, grinding 1.0 bar, 4.5 kg/h) | BET ([3]; feed 2.2 bar, grinding 1.2 bar, 5.0 kg/h) | BET ([3]; feed 2.5 bar, grinding 1.5 bar, 1.5 kg/h) | BET ([3]; feed 2.5 bar, grinding 1.5 bar, 2.4 kg/h) | BET ([3]; feed 2.5 bar, grinding 1.5 bar, 6.5 kg/h) | Specific surface area (BET) after grinding, metastable versus stable form ([3]; jet micronisation, similar operating conditions (feed pressure and grinding pressure)) | SMILES | Suitability for grinding or micronisation ([3]; metastable versus stable form)
0.18 and 0.29 and 0.16 |  |  |  |  |  |  |  |  | COc1ccc2c(c1)C(/C=C/C(C)=C/C(=O)O)=CC(C)(C)CO2 [stable, 2E,4E-(methoxy-7-dimethyl-3,3-dihydro-2,3-benzoxepin-1-yl-5)-5-methyl-3-pentadien-2,4-oic acid] | 
0.30 | 3.1 m^2/g and 2.8 m^2/g | greater apparent density | 6.2 m^2/g | 7.2 m^2/g | 10.2 m^2/g | 9.1 m^2/g | 9.2 m^2/g | greater specific surface area (BET) | COc1ccc2c(c1)C(/C=C/C(C)=C/C(=O)O)=CC(C)(C)CO2 [metastable, 2E,4E-(methoxy-7-dimethyl-3-dihydro-2,3-benzoxepin-1-yl-5)-5-methyl-3-pentadien-2,4-oic Acid] | more suitable for grinding or micronisation
